Test results from ChEMBL document CHEMBL5357001, “Coriaceumins A-D, the First Nitrogen-Containing Crenulide Diterpenoids from the Brown Alga Dictyota coriacea Collected in the East China Sea” (J Nat Prod, 2024).
The source made the active and inactive calls. The calls are words filed in the database; no cut-off is given here.

Columns and labels:
[1] = molecular target: T1, Tyrosine-protein phosphatase non-receptor type 1 (Homo sapiens) (UniProt P18031); assay: Inhibition of recombinant PTP1B (unknown origin) using pNPP as substrate at 20 uM relative to control
T1 sequence (whole entry): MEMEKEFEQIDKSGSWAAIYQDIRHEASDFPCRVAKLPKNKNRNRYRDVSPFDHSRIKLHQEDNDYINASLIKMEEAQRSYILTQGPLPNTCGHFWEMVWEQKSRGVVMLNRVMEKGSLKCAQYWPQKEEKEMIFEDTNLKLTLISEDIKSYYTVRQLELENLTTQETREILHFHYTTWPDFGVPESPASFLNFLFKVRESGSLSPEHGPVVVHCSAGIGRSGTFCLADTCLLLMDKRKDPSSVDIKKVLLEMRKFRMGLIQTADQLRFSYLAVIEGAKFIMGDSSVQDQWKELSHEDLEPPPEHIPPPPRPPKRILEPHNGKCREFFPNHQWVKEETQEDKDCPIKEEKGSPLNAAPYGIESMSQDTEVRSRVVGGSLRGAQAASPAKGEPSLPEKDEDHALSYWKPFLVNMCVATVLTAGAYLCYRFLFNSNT

HL-60 = assay: Cytotoxicity against human HL-60 cells assessed as reduction in cell viability at 20 uM incubated for 3 days by CCK-8 assay; type: functional, cell-based; conditions: time 3.0 day
A549 = assay: Cytotoxicity against human A549 cells assessed as reduction in cell viability at 20 uM incubated for 3 days by CCK-8 assay; type: functional, cell-based; conditions: time 3.0 day
[2] = molecular target: T2, Tyrosine-protein phosphatase non-receptor type 1 (Homo sapiens, UniProt P18031); assay: Inhibition of recombinant PTP1B (unknown origin) using pNPP as substrate relative to control
T2 sequence (P18031 whole entry): T1 sequence (whole entry)

Row | inhibition [1] [%] | IC50 [2] [µM] | Structure (SMILES) | Activity (HL-60) | Activity (A549)
1 | 38 |  | CCO[C@@H]1C/C=C(\C)CC[C@@H]([C@H](C)CCC=C(C)C)C2=C1C(=O)N[C@@H]2O | inactive | inactive
2 | 73 | 13 | CC(=O)O[C@@H]1C[C@@H](C)[C@@H]2C[C@@H]2C2=C(CNC2=O)[C@@H]1[C@H](C)CCC=C(C)C | inactive | inactive
3 | 47 |  | C=C(C)C(=O)CC[C@@H](C)[C@H]1C2=C(CNC2=O)[C@H]2C[C@H]2[C@H](C)C[C@H]1OC(C)=O | inactive | inactive
4 | 40 |  | CC(C)=CCC[C@@H](C)[C@H]1C2=C(C(=O)NC2)[C@H]2C[C@H]2[C@H](C)C[C@H]1O | inactive | inactive
5 | 81 | 9.5 | CCO[C@@H]1C/C=C(\C)CC[C@@H]([C@H](C)CCC=C(C)C)C2=C1C(=O)N[C@H]2O | inactive | inactive
6 | 52 | 19 | CC(=O)O[C@@H]1C[C@@H](C)[C@@H]2C[C@@H]2C2=C(C(=O)NC2)[C@@H]1[C@H](C)CCC=C(C)C | inactive | inactive
7 | 86 | 7.3 | CC(C)=CCC[C@@H](C)[C@H]1C2=C(C(=O)OC2)[C@H]2C[C@H]2[C@H](C)C[C@H]1O | inactive | inactive
